Data: DBAASP
Converted amounts (≈) assume the structure as drawn. Blank lines part the entries; values can stand above or below the compound they belong to.

Tests used:
Assay in all cases: ≥ marks a high value that may be exact or a test limit, other limits are often not marked, values filed in µg/mL are converted to µM
[1] = system: Candida tropicalis AY91009
Enterococcus sp. S13 = system: Enterococcus sp. S13
[2] = system: Enterobacter cloacae AB2010162
[3] = system: Staphylococcus aureus AB94004
[4] = system: Salmonella enterica AB2010185
[5] = system: Bacillus magaterium AB90008
[6] = system: Micrococcus luteus AB2010179
[7] = system: Staphylococcus aureus 16472
[8] = system: Klebsiella oxytoca AB2010143
Pseudomonas putida = system: Pseudomonas putida
[9] = system: Escherichia coli DH5alpha
Staphylococcus aureus 10 = system: Staphylococcus aureus 10
Pseudomonas aeruginosa = system: Pseudomonas aeruginosa
Klebsiella pneumoniae = system: Klebsiella pneumoniae
[10] = system: Escherichia coli ATCC 25922
[11] = system: Pseudomonas aeruginosa CMCCB 1010
[12] = system: Staphylococcus aureus ATCC 25923
Escherichia coli 37 = system: Escherichia coli 37
[13] = system: Candida albicans ATCC 2002
[14] = system: Pseudomonas aeruginosa ATCC 27853
[15] = system: Enterobacter cloacae ATCC 13047
[16] = system: Klebsiella pneumoniae ATCC 700603
[17] = system: Enterococcus faecalis ATCC 29212
Shigella dysenteriae = system: Shigella dysenteriae
[18] = system: Legionella bozemanae ATCC 33217
[19] = system: Legionella pneumophila ATCC 33216
Bacillus megaterium F04 = system: Bacillus megaterium F04
[20] = system: Legionella oakridgensis ATCC 33761
[21] = system: Legionella pneumophila Lens
[22] = system: Legionella feeleii ATCC 35072
[23] = system: Legionella pneumophila ATCC 33215
[24] = system: Legionella pneumophila Paris
[25] = system: Legionella longbeachae ATCC 33484
[26] = system: Legionella pneumophila Corby
[27] = system: Legionella micdadei ATCC 33218
[28] = system: Legionella pneumophila ATCC 33155
[29] = system: Pseudomonas aeruginosa ATCC 9027
[30] = system: Escherichia coli ATCC 8739
[31] = system: Proteus vulgaris NCTC 4635
[32] = system: Bacillus subtilis ATCC 9372
[33] = system: Staphylococcus aureus ATCC 6538
[34] = system: Proteus vulgaris OX19 ATCC 6380
[35] = system: Staphylococcus aureus JC-1
[36] = system: Staphylococcus aureus Cowan 1
Escherichia coli D21 = system: Escherichia coli D21
[37] = system: Pseudomonas aeruginosa OT97
Bacillus megaterium Bm11 = system: Bacillus megaterium Bm11
[38] = system: Bacillus subtilis ATCC 6633
[39] = system: Shigella flexneri ATCC 203

MIC [1]: 16 µM (≈ 24.8 µg/mL) | MIC (Enterococcus sp. S13): 28 µM (≈ 43.3 µg/mL) | MIC [2]: ≥ 76 µM | MIC [3]: 8 µM (≈ 12.4 µg/mL) | MIC [4]: ≥ 72 µM | MIC [5]: ≥ 32 µM | MIC [6]: ≥ 32 µM | MIC [7]: 14 µM (≈ 21.7 µg/mL) | MIC [8]: ≥ 87 µM | MIC (Pseudomonas putida): ≥ 87 µM | MIC [9]: ≥ 62 µM
SMILES: CC[C@H](C)[C@H](NC(=O)CN)C(=O)N[C@@H](CC(C)C)C(=O)NCC(=O)N[C@@H](CCCCN)C(=O)N[C@@H](CC(C)C)C(=O)N[C@@H](Cc1c[nH]c2ccccc12)C(=O)N[C@@H](CCC(=O)O)C(=O)NCC(=O)N[C@@H](Cc1ccccc1)C(=O)N[C@@H](CCCCN)C(=O)N[C@@H](CO)C(=O)N[C@H](C(=O)N[C@H](C(=O)O)C(C)C)[C@@H](C)CC [GILGKLWEGFKSIV]

MIC (Staphylococcus aureus 10): ≥ 40 µM | MIC (Pseudomonas aeruginosa): 23 µM (≈ 59.7 µg/mL) | MIC (Klebsiella pneumoniae): 30 µM (≈ 77.8 µg/mL) | MIC [10]: 10 µM (≈ 25.9 µg/mL) | MIC [11]: 17 µM (≈ 44.1 µg/mL) | MIC [12]: 17 µM (≈ 44.1 µg/mL) | MIC (Escherichia coli 37): ≥ 60 µM | MIC [13]: ≥ 60 µM | MIC [14]: 23 µM (≈ 59.7 µg/mL) | MIC [15]: ≥ 40 µM | MIC [16]: 15 µM (≈ 38.9 µg/mL) | MIC [17]: 60 µM (≈ 156 µg/mL) | MIC (Shigella dysenteriae): ≥ 40 µM
SMILES: CC[C@H](C)[C@H](NC(=O)[C@H](CC(C)C)NC(=O)[C@H](CC(C)C)NC(=O)[C@H](CCCCN)NC(=O)[C@H](C)NC(=O)[C@H](CC(C)C)NC(=O)[C@H](CCCCN)NC(=O)[C@@H](NC(=O)[C@H](C)NC(=O)CNC(=O)[C@H](CCSC)NC(=O)[C@H](CO)NC(=O)[C@@H](N)CC(=O)O)C(C)C)C(=O)N[C@@H](CC(=O)O)C(=O)N[C@@H](CCCCN)C(=O)N[C@@H](CCSC)C(=O)N[C@@H](CCCCN)C(=O)N[C@H]1CSSC[C@@H](C(=O)O)NC(=O)[C@H](C)NC(=O)[C@H](CCCCN)NC(=O)[C@H]([C@@H](C)O)NC(=O)[C@H](C(C)C)NC(=O)[C@H](CCC(=O)O)NC1=O [DSMGAVKLAKLLIDKMKCEVTKAC]

MIC [18]: 19.5 µM (≈ 50 µg/mL) | MIC [19]: 19.5 µM (≈ 50 µg/mL) | MIC (Bacillus megaterium F04): 4.69 µM (≈ 12 µg/mL) | MIC [20]: 19.5 µM (≈ 50 µg/mL) | MIC [21]: 1.17 µM (≈ 3 µg/mL) | MIC [22]: 19.5 µM (≈ 50 µg/mL) | MIC [23]: 19.5 µM (≈ 50 µg/mL) | MIC [24]: 19.5 µM (≈ 50 µg/mL) | MIC [25]: 19.5 µM (≈ 50 µg/mL) | MIC [26]: 19.5 µM (≈ 50 µg/mL) | MIC [27]: 19.5 µM (≈ 50 µg/mL) | MIC [28]: 19.5 µM (≈ 50 µg/mL)
SMILES: CC[C@H](C)[C@H](NC(=O)[C@H](CC(C)C)NC(=O)[C@H](CC(=O)O)NC(=O)[C@@H](NC(=O)[C@@H](NC(=O)[C@H](Cc1ccccc1)NC(=O)[C@H](CCC(N)=O)NC(=O)[C@@H](N)CCSC)[C@@H](C)CC)[C@@H](C)O)C(=O)N[C@@H](CCCCN)C(=O)N[C@@H](CCCCN)C(=O)N[C@@H](C)C(=O)N[C@H](C(=O)N[C@@H](CC(=O)O)C(=O)N[C@@H](Cc1ccccc1)C(=O)N[C@@H](Cc1ccccc1)C(=O)N[C@@H](CCCCN)C(=O)NCC(=O)N[C@@H](CC(C)C)C(=O)N[C@@H](Cc1ccccc1)C(=O)NCC(=O)N[C@@H](CC(N)=O)C(=O)N[C@@H](CCCCN)C(=O)O)C(C)C [MQFITDLIKKAVDFFKGLFGNK]

MIC [29]: 208 µM (≈ 256 µg/mL) | MIC [30]: ≥ 104 µM | MIC [31]: ≥ 416 µM | MIC [32]: ≥ 52 µM | MIC [33]: 208 µM (≈ 256 µg/mL)
SMILES: CC[C@H](C)[C@H](NC(=O)[C@@H](NC(=O)[C@H](C)NC(=O)[C@H](Cc1ccccc1)NC(=O)[C@H](CC(C)C)NC(=O)CN)C(C)C)C(=O)N[C@@H](CCCCN)C(=O)N[C@@H](CCCCN)C(=O)N[C@H](C(=O)N[C@@H](C)C(=O)N[C@@H](CO)C(=O)N[C@H](C(=O)O)C(C)C)C(C)C [GLFAVIKKVASV]

MIC [34]: ≥ 6000 µM | MIC [35]: ≥ 1600 µM | MIC [36]: ≥ 6000 µM | MIC (Escherichia coli D21): ≥ 3200 µM | MIC [37]: ≥ 6000 µM | MIC (Bacillus megaterium Bm11): ≥ 800 µM | MIC [38]: ≥ 3200 µM | MIC [39]: ≥ 6000 µM
SMILES: CC[C@H](C)[C@H](NC(=O)[C@H](CCCCN)NC(=O)[C@@H](NC(=O)[C@@H](NC(=O)[C@H](CCC(N)=O)NC(=O)CNC(=O)[C@H](Cc1cnc[nH]1)NC(=O)[C@H](CCC(N)=O)NC(=O)[C@@H](N)CC(N)=O)C(C)C)C(C)C)C(=O)N[C@@H](Cc1ccccc1)C(=O)N[C@@H](Cc1cnc[nH]1)C(=O)N[C@@H](Cc1cnc[nH]1)C(=O)O [NQHGQVVKIFHH]
